Test results reported in PubChem BioAssay AID1259407 (Chemical Carcinogenesis Research Information System (CCRIS), 2018).
Activity calls are given as the source filed them. How the calls were made is not given here.

Tested on: CCRIS mutagenicity, Ames/micronucleus/aberration tests
Assay: CCRIS mutagenicity studies
[1] = Test System: AMES SALMONELLA TYPHIMURIUM, Strain/Indicator: TA98, Metabolic Activation: NONE, Method: STANDARD PLATE
[2] = Test System: AMES SALMONELLA TYPHIMURIUM, Strain/Indicator: TA100, Metabolic Activation: NONE, Method: STANDARD PLATE
[3] = Test System: AMES SALMONELLA TYPHIMURIUM, Strain/Indicator: TA98, Metabolic Activation: NONE, Method: PREINCUBATION
[4] = Test System: AMES SALMONELLA TYPHIMURIUM, Strain/Indicator: TA100, Metabolic Activation: NONE, Method: PREINCUBATION

For CC(C)NCC(O)COc1ccc(CC(N)=O)cc1 (stereo not given), the mutagenic call (Test System: AMES SALMONELLA TYPHIMURIUM, Strain/Indicator: TA98, Metabolic Activation: NONE) was “inactive; negative”, the mutagenic call (Test System: AMES SALMONELLA TYPHIMURIUM, Strain/Indicator: TA98, Metabolic Activation: RAT, LIVER, S-9, AROCLOR 1254) was “inactive; negative” and the mutagenic call (Test System: AMES SALMONELLA TYPHIMURIUM, Strain/Indicator: TA100, Metabolic Activation: NONE) was “inactive; negative”. The mutagenic call (Test System: AMES SALMONELLA TYPHIMURIUM, Strain/Indicator: TA100, Metabolic Activation: RAT, LIVER, S-9, AROCLOR 1254) was “inactive; negative”, the mutagenic call (Test System: AMES SALMONELLA TYPHIMURIUM, Strain/Indicator: TA1535, Metabolic Activation: NONE) was “inactive; negative” and the mutagenic call (Test System: AMES SALMONELLA TYPHIMURIUM, Strain/Indicator: TA1535, Metabolic Activation: RAT, LIVER, S-9, AROCLOR 1254) was “inactive; negative”. For the same compound, the mutagenic call (Test System: AMES SALMONELLA TYPHIMURIUM, Strain/Indicator: TA1537, Metabolic Activation: NONE) was “inactive; negative”, the mutagenic call (Test System: AMES SALMONELLA TYPHIMURIUM, Strain/Indicator: TA1537, Metabolic Activation: RAT, LIVER, S-9, AROCLOR 1254) was “inactive; negative” and the mutagenic call (Test System: UDS HUMAN HEPATOCYTES, Strain/Indicator: THY INCORP, Metabolic Activation: NONE, Method: AUTORADIOGRAPHY) was “inactive; negative”. The mutagenic call (Test System: UDS RAT HEPATOCYTES, Strain/Indicator: THY INCORP, Metabolic Activation: NONE, Method: AUTORADIOGRAPHY) was “inactive; negative”.

For O=[N+]([O-])c1cc2[nH]c3ccc4ccc(O)cc4c3c2c2ccccc12, the mutagenic call [1] was “active; positive”, the mutagenic call (Test System: AMES SALMONELLA TYPHIMURIUM, Strain/Indicator: TA98, Metabolic Activation: RAT, LIVER, S-9, 3-METHYLCHOLANTHRENE, Method: STANDARD PLATE) was “active; positive” and the mutagenic call [2] was “active; positive”. The mutagenic call (Test System: AMES SALMONELLA TYPHIMURIUM, Strain/Indicator: TA100, Metabolic Activation: RAT, LIVER, S-9, 3-METHYLCHOLANTHRENE, Method: STANDARD PLATE) was “active; positive”.

In the case of O=[N+]([O-])c1ccc2c(c1)Oc1ccc([N+](=O)[O-])cc1O2, the mutagenic call (Test System: AMES SALMONELLA TYPHIMURIUM, Strain/Indicator: TA98(1,8-DNP6), Metabolic Activation: NONE, Method: PREINCUBATION) is reported as “active; positive”, the mutagenic call (Test System: AMES SALMONELLA TYPHIMURIUM, Strain/Indicator: TA98(1,8-DNP6), Metabolic Activation: NONE, Method: SUSPENSION) is reported as “active; positive” and the mutagenic call (Test System: AMES SALMONELLA TYPHIMURIUM, Strain/Indicator: TA98(1,8-DNP6), Metabolic Activation: RAT, LIVER, S-9, PCB (5%), Method: PREINCUBATION) is reported as “active; positive”. For the same compound, the mutagenic call (Test System: AMES SALMONELLA TYPHIMURIUM, Strain/Indicator: TA98(NR), Metabolic Activation: NONE, Method: PREINCUBATION) was “inactive; negative”, the mutagenic call (Test System: AMES SALMONELLA TYPHIMURIUM, Strain/Indicator: TA98(NR), Metabolic Activation: NONE, Method: SUSPENSION) was “active; positive” and the mutagenic call (Test System: AMES SALMONELLA TYPHIMURIUM, Strain/Indicator: TA98(NR), Metabolic Activation: RAT, LIVER, S-9 (15%), Method: PREINCUBATION) was “active; positive”. For the same compound, the mutagenic call (Test System: AMES SALMONELLA TYPHIMURIUM, Strain/Indicator: TA98(NR), Metabolic Activation: RAT, LIVER, S-9, 3-METHYLCHOLANTHRENE (15%), Method: PREINCUBATION) was “active; positive”, the mutagenic call (Test System: AMES SALMONELLA TYPHIMURIUM, Strain/Indicator: TA98(NR), Metabolic Activation: RAT, LIVER, S-9, BETA-NAPHTHOFLAVONE (15%), Method: PREINCUBATION) was “active; positive” and the mutagenic call (Test System: AMES SALMONELLA TYPHIMURIUM, Strain/Indicator: TA98(NR), Metabolic Activation: RAT, LIVER, S-9, PCB (5 OR 15%), Method: PREINCUBATION) was “active; positive”. For the same compound, the mutagenic call (Test System: AMES SALMONELLA TYPHIMURIUM, Strain/Indicator: TA98(NR), Metabolic Activation: RAT, LIVER, S-9, PHENOBARBITAL (15%), Method: PREINCUBATION) was “active; positive”, the mutagenic call [3] was “active; positive” and the mutagenic call (Test System: AMES SALMONELLA TYPHIMURIUM, Strain/Indicator: TA98, Metabolic Activation: NONE, Method: SUSPENSION) was “active; positive”. For the same compound, the mutagenic call (Test System: AMES SALMONELLA TYPHIMURIUM, Strain/Indicator: TA98, Metabolic Activation: RAT, LIVER, S-9, PCB (5%), Method: PREINCUBATION) was “active; positive”, the mutagenic call (Test System: AMES SALMONELLA TYPHIMURIUM, Strain/Indicator: TA98, Metabolic Activation: RAT, LIVER, S-9, PCB, Method: SUSPENSION) was “active; positive” and the mutagenic call [4] was “inactive; negative”. The mutagenic call (Test System: AMES SALMONELLA TYPHIMURIUM, Strain/Indicator: TA100, Metabolic Activation: NONE, Method: SUSPENSION) was “inactive; negative”, the mutagenic call (Test System: AMES SALMONELLA TYPHIMURIUM, Strain/Indicator: TA100, Metabolic Activation: RAT, LIVER, S-9, PCB, Method: PREINCUBATION) was “inactive; negative” and the mutagenic call (Test System: AMES SALMONELLA TYPHIMURIUM, Strain/Indicator: TA100, Metabolic Activation: RAT, LIVER, S-9, PCB, Method: SUSPENSION) was “inactive; negative”.

Oc1ccc2ccc3c4ccc5ccccc5c4c4c(c3c2c1O)O4 was tested, and the mutagenic call (Test System: AMES SALMONELLA TYPHIMURIUM, Strain/Indicator: TA97, Metabolic Activation: NONE, Method: PREINCUBATION) was “active; positive”, the mutagenic call [3] was “active; positive” and the mutagenic call [4] was “active; positive”. The mutagenic call (Test System: AMES SALMONELLA TYPHIMURIUM, Strain/Indicator: TA104, Metabolic Activation: NONE, Method: PREINCUBATION) was “active; positive” and the mutagenic call (Test System: CHINESE HAMSTER V-79, Strain/Indicator: V-79/6-THIOGUANINE, Metabolic Activation: NONE) was “active; positive”.

With CCOC1=CC(=O)C(NC(C)=O)=CC1=O the mutagenic call [1] was “active; positive” and the mutagenic call [2] was “active; positive”.

CC(C)=CCC/C(C)=C/C=O was tested, and the mutagenic call (Test System: AMES SALMONELLA TYPHIMURIUM, Strain/Indicator: TA97A, Metabolic Activation: NONE, Method: STANDARD PLATE) was “inactive; negative”, the mutagenic call (Test System: AMES SALMONELLA TYPHIMURIUM, Strain/Indicator: TA97A, Metabolic Activation: RAT LIVER S-9, AROCLOR 1254, Method: STANDARD PLATE) was “inactive; negative” and the mutagenic call (Test System: AMES SALMONELLA TYPHIMURIUM, Strain/Indicator: TA98, Metabolic Activation: HAMSTER, LIVER, S-9, AROCLOR 1254 (10%), Method: PREINCUBATION) was “inactive; negative”. For the same compound, the mutagenic call [3] was “inactive; negative”, the mutagenic call [1] was “inactive; negative” and the mutagenic call (Test System: AMES SALMONELLA TYPHIMURIUM, Strain/Indicator: TA98, Metabolic Activation: RAT LIVER S-9, AROCLOR 1254, Method: STANDARD PLATE) was “inactive; negative”. For the same compound, the mutagenic call (Test System: AMES SALMONELLA TYPHIMURIUM, Strain/Indicator: TA98, Metabolic Activation: RAT, LIVER, S-9, AROCLOR 1254 (10%), Method: PREINCUBATION) was “inactive; negative”, the mutagenic call (Test System: AMES SALMONELLA TYPHIMURIUM, Strain/Indicator: TA100, Metabolic Activation: HAMSTER, LIVER, S-9, AROCLOR 1254 (10%), Method: PREINCUBATION) was “inactive; negative” and the mutagenic call [4] was “inactive; negative”. The mutagenic call [2] was “inactive; negative”, the mutagenic call (Test System: AMES SALMONELLA TYPHIMURIUM, Strain/Indicator: TA100, Metabolic Activation: RAT LIVER S-9, AROCLOR 1254, Method: STANDARD PLATE) was “inactive; negative” and the mutagenic call (Test System: AMES SALMONELLA TYPHIMURIUM, Strain/Indicator: TA100, Metabolic Activation: RAT, LIVER, S-9, AROCLOR 1254 (10%), Method: PREINCUBATION) was “inactive; negative”. The mutagenic call (Test System: AMES SALMONELLA TYPHIMURIUM, Strain/Indicator: TA102, Metabolic Activation: NONE, Method: STANDARD PLATE) was “inactive; negative”, the mutagenic call (Test System: AMES SALMONELLA TYPHIMURIUM, Strain/Indicator: TA102, Metabolic Activation: RAT LIVER S-9, AROCLOR 1254, Method: STANDARD PLATE) was “inactive; negative” and the mutagenic call (Test System: AMES SALMONELLA TYPHIMURIUM, Strain/Indicator: TA1535, Metabolic Activation: HAMSTER, LIVER, S-9, AROCLOR 1254 (10%), Method: PREINCUBATION) was “inactive; negative”. For the same compound, the mutagenic call (Test System: AMES SALMONELLA TYPHIMURIUM, Strain/Indicator: TA1535, Metabolic Activation: NONE, Method: PREINCUBATION) was “inactive; negative”, the mutagenic call (Test System: AMES SALMONELLA TYPHIMURIUM, Strain/Indicator: TA1535, Metabolic Activation: RAT, LIVER, S-9, AROCLOR 1254 (10%), Method: PREINCUBATION) was “inactive; negative” and the mutagenic call (Test System: AMES SALMONELLA TYPHIMURIUM, Strain/Indicator: TA1537, Metabolic Activation: HAMSTER, LIVER, S-9, AROCLOR 1254 (10%), Method: PREINCUBATION) was “inactive; negative”. The mutagenic call (Test System: AMES SALMONELLA TYPHIMURIUM, Strain/Indicator: TA1537, Metabolic Activation: NONE, Method: PREINCUBATION) was “inactive; negative” and the mutagenic call (Test System: AMES SALMONELLA TYPHIMURIUM, Strain/Indicator: TA1537, Metabolic Activation: RAT, LIVER, S-9, AROCLOR 1254 (10%), Method: PREINCUBATION) was “inactive; negative”.

For CN(N=O)C(=O)Oc1ccccc1Cl, the mutagenic call (Test System: E. COLI WP2, Strain/Indicator: WP2, Metabolic Activation: NONE, Method: STANDARD PLATE) was “active; positive”.
